Measurements: the Deep4Chem optical property database
Values belong to the compound of their own block, whether it stands above or below them.

Assay: solvent given as SMILES

absorption maximum (in ClCCl): 415 nm
SMILES: C(=C\c1cc(/C=C/c2ccc(N(c3ccccc3)c3ccccc3)cc2)nc(/C=C/c2ccc(N(c3ccccc3)c3ccccc3)cc2)n1)/c1ccc(N(c2ccccc2)c2ccccc2)cc1

absorption maximum (in CCOC(C)=O): 448 nm
SMILES: CCN1CCN(c2ccc(/N=N/c3ccc([N+](=O)[O-])cc3)cc2)CC1

absorption maximum (in C1COCCO1): 379 nm
absorption maximum (in CC#N): 379 nm
absorption maximum (in CCO): 381 nm
absorption maximum (in CO): 382 nm
absorption maximum (in ClCCCl): 380 nm
absorption maximum (in O): 386 nm
SMILES: Cc1cccc2nc3c(=O)[nH]c(=O)[nH]c3nc12

absorption maximum (in CC#N): 404 nm
SMILES: CCOC(=O)c1c2c3c(ccc(Br)c3c3cc4ccccc4cc13)N(C)C2=O

absorption maximum (in CC#N): 444 nm
SMILES: Cc1cc2nc3c(=O)n(C)c(=O)nc-3n(C)c2cc1C

absorption maximum (in CC#N): 382 nm
absorption maximum (in CCCCCC): 384 nm
absorption maximum (in CO): 368 nm
absorption maximum (in CS(C)=O): 391 nm
absorption maximum (in ClC(Cl)Cl): 373 nm
SMILES: CCN(CC)c1ccc(/C=N/Nc2ccc(C#N)cc2)c(O)c1

absorption maximum (in C1CCOC1): 411 nm
SMILES: COc1cc2c(cc1-c1ccc(C)cc1)Cc1c3c(c4c(c1-2)-c1cc(OC)c(-c2ccc(C)cc2)cc1C4)C(=O)N(CCC(C)C)C3=O

absorption maximum (in C1CCCCC1): 389 nm
absorption maximum (in CC#N): 424 nm
absorption maximum (in CCO): 436 nm
absorption maximum (in c1ccccc1): 409 nm
SMILES: CNc1ccc2c(c1)-c1ccccc1C2=O

SMILES: F[B-]1(F)n2c(c3cccc4cccc2c43)=Nc2ccc3ccccc3[n+]21
absorption maximum (in C1CCOC1): 486 nm
absorption maximum (in CC#N): 481 nm
absorption maximum (in CCCCCC): 490 nm
absorption maximum (in Cc1ccccc1): 490 nm
absorption maximum (in ClCCl): 455 nm

absorption maximum (in ClCCl): 329 nm
SMILES: c1ccc(-n2nc(-c3ccc(N4c5ccccc5Sc5ccccc54)cc3)nc2-c2ccccn2)cc1

SMILES: c1ccc(-c2nc(-c3ccc(N4c5ccccc5C(c5ccccc5)(c5ccccc5)c5ccccc54)cc3)cc(-c3ccc(N4c5ccccc5C(c5ccccc5)(c5ccccc5)c5ccccc54)cc3)n2)cc1
absorption maximum (in Cc1ccccc1): 373 nm

absorption maximum (in ClCCl): 327 nm
SMILES: COC(=O)C1=C(C(=O)OC)C2(c3cc(Cl)ccc3-c3c(Cl)cc(Cl)cc32)C2(/C=C/c3ccccc3)c3cc(OC)c(OC)cc3CCN12 (stereo not drawn)

absorption maximum (in C1CCOC1): 382 nm
SMILES: CC1(C)c2ccccc2-c2ccc(N(c3ccccc3)c3ccc4c(c3)C(C)(C)c3cc(-c5cc6ccccc6c6c5oc5ccccc56)ccc3-4)cc21

absorption maximum (in C1COCCO1): 353 nm
SMILES: c1ccc(-c2nc(-c3ccc(-c4ccc(-c5nc(-c6ccccc6)c(-c6ccccc6)o5)cc4)cc3)oc2-c2ccccc2)cc1

absorption maximum (in CC#N): 393 nm
absorption maximum (in CO): 397 nm
absorption maximum (in ClCCl): 393 nm
SMILES: Cc1ccc(-c2[nH]c(=O)n3c2-c2ccccc2C3=O)c(O)c1

absorption maximum (in ClCCl): 378 nm
SMILES: COc1cn2cc(-c3ccc(C#N)cc3)[n-][n+]2c1

SMILES: CC1(C)c2ccccc2-c2cc3c(cc21)N(c1ccc(-c2nc(-c4ccc(N5c6ccccc6C(c6ccccc6)(c6ccccc6)c6cc7c(cc65)C(C)(C)c5ccccc5-7)cc4)nc(-c4ccc(N5c6ccccc6C(c6ccccc6)(c6ccccc6)c6cc7c(cc65)C(C)(C)c5ccccc5-7)cc4)n2)cc1)c1ccccc1C3(c1ccccc1)c1ccccc1
absorption maximum (in Cc1ccccc1): 321 nm

absorption maximum (in CC#N): 295 nm
SMILES: COc1ccc(-c2nc3c([nH]2)=C2C=C(Cl)S[C@@]2(C)[C@]2(C)SC(Cl)=CC=32)cc1

absorption maximum (in ClCCl): 410 nm
SMILES: CCCCN(CCCC)c1ccc(C#Cc2cc(C#Cc3cc(C(F)(F)F)cc(C(F)(F)F)c3)c(C#Cc3cc(C(F)(F)F)cc(C(F)(F)F)c3)cc2C#Cc2ccc(N(CCCC)CCCC)cc2)cc1

absorption maximum (in ClCCl): 364 nm
SMILES: COc1cccc2cc(C#N)c(=N)oc12

absorption maximum (in C1COCCO1): 485 nm
SMILES: CCC12C(=C3C(=C4c5ccc(-c6ccc(C(C)=O)s6)cc5S(=O)(=O)C41CC)C(F)(F)C(F)(F)C3(F)F)c1ccc(-c3ccc(C(C)=O)s3)cc1S2(=O)=O (stereo not drawn)

absorption maximum (in ClC(Cl)Cl): 530 nm
SMILES: c1ccc(N(c2ccccc2)c2ccc(-c3ccc(-c4ccc(-c5ccc(-c6ccc(N(c7ccccc7)c7ccccc7)cc6)s5)c5nsnc45)s3)cc2)cc1

absorption maximum (in ClC(Cl)Cl): 376 nm
SMILES: COc1ccc(-c2ccc(-c3c4c(nc5ccccc35)-c3cc5c(cc3CC4)-c3nc4ccccc4c(-c4ccc(-c6ccc(OC)cc6)cc4)c3CC5)cc2)cc1

absorption maximum (in ClCCl): 328 nm
SMILES: COC(=O)C1=C(C(=O)OC)C2(c3ccccc3-c3c(Br)cc(Br)cc32)C2(/C=C/c3ccc(Cl)cc3)c3cc(OC)c(OC)cc3CCN12 (stereo not drawn)

SMILES: CC[N+]1(CC)CN2C(=N1)C(C(=O)O)=Cc1ccc(C)cc12
absorption maximum (in O): 370 nm

absorption maximum (in CC#N): 347 nm
absorption maximum (in ClCCl): 365 nm
SMILES: Cc1ccc(-c2cc(C)[o+]c(C)c2)cc1

SMILES: COc1nc(Cl)nc(Nc2ccc3c4c(cccc24)C(=O)c2ccccc2-3)n1
absorption maximum (in CC#N): 407 nm
absorption maximum (in CC(C)=O): 410 nm
absorption maximum (in CC(C)O): 417.01 nm
absorption maximum (in CCOC(C)=O): 411.02 nm
absorption maximum (in CO): 414.94 nm
absorption maximum (in Cc1ccccc1): 419.99 nm
absorption maximum (in Clc1ccccc1): 418.06 nm
absorption maximum (in N#Cc1ccccc1): 415.97 nm
absorption maximum (in O=C1CCCCC1): 414.94 nm

absorption maximum (in ClCCl): 532 nm
SMILES: CC1=C(c2ccccc2)C(C)=[N+]2C1=C(c1c(-c3ccccn3)nc3ccccn13)c1c(C)cc(C)n1[B-]2(F)F

SMILES: COc1ccccc1C1=C2C(C)=CC(C)=[N+]2[B-](F)(F)n2c(C)cc(C)c21
absorption maximum (in C1CCOC1): 503 nm
absorption maximum (in CC#N): 499 nm
absorption maximum (in CC(=O)C(C)(C)C): 502 nm
absorption maximum (in CC(C)=O): 501 nm
absorption maximum (in CCCCCC): 504 nm
absorption maximum (in CCOC(C)=O): 502 nm
absorption maximum (in CO): 500 nm

absorption maximum (in ClCCl): 402 nm
SMILES: C(=C\c1ncnc2ccccc12)/c1ccc(-c2ccc(N(c3ccccc3)c3ccccc3)cc2)cc1

absorption maximum (in ClC(Cl)Cl): 404 nm
SMILES: C=C[Si](c1c2ccccc2cc2ccccc12)(c1c2ccccc2cc2ccccc12)c1c2ccccc2cc2ccccc12

absorption maximum (in ClCCl): 349 nm
SMILES: Cc1ccc(/N=C2\N=C(N)c3cccc4cccc2c34)cc1

absorption maximum (in C1CCCCC1): 315 nm
SMILES: C[Si](C)(C)c1ccc(C#N)c2ccccc12

absorption maximum (in ClCCl): 340 nm
SMILES: COc1ccc2ccccc2c1C1=CC(c2ccccc2)=C(c2ccccc2)C1

SMILES: COc1nc(Nc2ccc3c4c(cccc24)C(=O)c2ccccc2-3)nc(OC)n1
absorption maximum (in CC#N): 413.91 nm
absorption maximum (in CC(C)O): 421.94 nm
absorption maximum (in CCCCOCCCC): 421.94 nm
absorption maximum (in CCOC(C)=O): 418.94 nm
absorption maximum (in CO): 419.99 nm
absorption maximum (in Cc1ccccc1): 426.99 nm

SMILES: COc1cc(C2=C(c3ccc(C(C)(C)C)cc3)C(c3ccc(C(C)(C)C)cc3)=[N+]3C2=Nc2c(-c4cc(OC)c(OC)c(OC)c4)c(-c4ccc(C(C)(C)C)cc4)c(-c4ccc(C(C)(C)C)cc4)n2[B-]3(F)F)cc(OC)c1OC
absorption maximum (in Cc1ccccc1): 675 nm

absorption maximum (in ClCCl): 282 nm
SMILES: CC1(C)c2ccccc2N(c2ccc3c(c2)S(=O)(=O)c2cc(N4c5ccccc5C(C)(C)c5ccccc54)ccc2C3(C)C)c2ccccc21

absorption maximum (in C1CCOC1): 360 nm
absorption maximum (in C1COCCO1): 362 nm
absorption maximum (in CC#N): 354 nm
absorption maximum (in CCCCCO): 370 nm
absorption maximum (in CCCCO): 370 nm
absorption maximum (in CCCO): 368 nm
absorption maximum (in CCO): 369 nm
absorption maximum (in CO): 356 nm
absorption maximum (in COCCOC): 360 nm
absorption maximum (in ClC(Cl)Cl): 362 nm
absorption maximum (in ClCCl): 362 nm
absorption maximum (in OCCO): 356 nm
SMILES: O=C(O)c1c2ccccc2nc2ccccc12

absorption maximum (in ClC(Cl)Cl): 487 nm
SMILES: N#Cc1nc(N(Cc2ccccc2I)Cc2ccccc2I)c(C#N)nc1N(Cc1ccccc1I)Cc1ccccc1I
